Measured values from PMC7155171, “Probing the Open Global Health Chemical Diversity Library for Multistage-Active Starting Points for Next-Generation Antimalarials” (ACS Infectious Diseases, 2020).
Read-outs that look alike come from different tables or passages of the source.

Experiments:
[1] = system: P. falciparum Dd2 (PfLuc) line expressing firefly luciferase, asexual blood stage; experiment: microbe, parasite or virus in culture; assay type: cell-based, Plasmodium falciparum; conditions: Plasmodium falciparum
[2] = system: P. falciparum Dd2; experiment: SYBR green I asexual blood stage proliferation assay (96 h); assay type: cell-based, Plasmodium falciparum; conditions: Plasmodium falciparum, DD2, 11-pt dose response, 96hr
[3] = DD2, read-out: CDD P. falciparum Luciferase ABS 11-pt Reconfirmation Dose Response (48hr): IC50 (μM), 11-pt dose response, 48hr
[4] = DD2, 8-pt dose response, 96hr, read-out: CDD P. falciparum Luciferase ABS 8-pt Reconfirmation Dose Response (96hr): IC50
[5] = DD2, 8-pt dose response, 96hr, read-out: CDD P. falciparum Luciferase ABS 8-pt Reconfirmation Dose Response (96hr): Maximum inhibition (%)
[6] = DD2, 11-pt dose response, 48hr, read-out: CDD P. falciparum Luciferase ABS 11-pt Reconfirmation Dose Response (48hr): Maximum inhibition (%)
[7] = DD2, 11-pt dose response, 96hr, read-out: CDD P. falciparum Luciferase ABS 11-pt Reconfirmation Dose Response (96hr): IC50
[8] = DD2, 11-pt dose response, 96hr, read-out: CDD P. falciparum Luciferase ABS 11-pt Reconfirmation Dose Response (96hr): Maximum inhibition (%)
[9] = Sybr Green I, read-out: CDD P. falciparum Sybr Green I ABS 11-pt Reconfirmation Dose Response (96hr): IC50
[10] = Sybr Green I, read-out: CDD P. falciparum Sybr Green I ABS 11-pt Reconfirmation Dose Response (96hr): Maximum inhibition (%)
[11] = DD2, read-out: P. falciparum Luciferase ABS 11-pt Reconfirmation Dose Response (48hr): IC50, 11-pt dose response, 48hr
[12] = DD2, 8-pt dose response, 96hr, read-out: P. falciparum Luciferase ABS 8-pt Reconfirmation Dose Response (96hr): IC50
[13] = DD2, 8-pt dose response, 96hr, read-out: P. falciparum Luciferase ABS 8-pt Reconfirmation Dose Response (96hr): Maximum inhibition (%)
[14] = DD2, 11-pt dose response, 96hr, read-out: P. falciparum Luciferase ABS 11-pt Reconfirmation Dose Response (96hr): IC50
[15] = DD2, 11-pt dose response, 96hr, read-out: P. falciparum Luciferase ABS 11-pt Reconfirmation Dose Response (96hr): Maximum inhibition (%)
[16] = read-out: P. falciparum Sybr Green I ABS 11-pt Reconfirmation Dose Response (96hr): IC50
[17] = read-out: P. falciparum Sybr Green I ABS 11-pt Reconfirmation Dose Response (96hr): Maximum inhibition (%)

Row | SMILES | IC50 [1, 3] [µM] | IC50 [1, 4] [µM] | Emax [1, 5] [%] | Emax [1, 6] [%] | IC50 [1, 7] [µM] | Emax [1, 8] [%] | IC50 [2, 9] [µM] | Emax [2, 10] [%] | IC50 [1, 11] [µM] | IC50 [1, 12] [µM] | Emax [1, 13] [%] | Emax ([1]; DD2, 11-pt dose response, 48hr, read-out: P. falciparum Luciferase ABS 11-pt Reconfirmation Dose Response (48hr): Maximum inhibition (%)) [%] | IC50 [1, 14] [µM] | Emax [1, 15] [%] | IC50 [2, 16] [µM] | Emax [2, 17] [%]
1 | Brc1cccc(C2(CNCc3cc[nH]c3)CCOCC2)c1 [DDD01076928] | 1.56 | 0.82 | 85.7 | 86.3 | 0.694 | 99.3 | 5.62 |  |  |  |  |  |  |  |  | 
2 | Brc1ccc(C2(CNCc3cc[nH]c3)CCOCC2)cc1 [DDD01076992] | 0.715 | 0.62 | 82.1 | 95.6 | 0.407 | 99.6 | 3.08 | 54 |  |  |  |  |  |  |  | 
3 | COCCC1(CNC(=O)Nc2ccnc(C)c2)CCCC1 [DDD01077091] | > 12.5 | 1.04 | 79.6 | 48.9 | > 1.39 | 82 | > 12.5 | 47.9 |  |  |  |  |  |  |  | 
4 | CN1CCN(S(=O)(=O)c2ccc(Cl)c(Cl)c2)c2cnccc21 [DDD01077309] | 6.77 | 0.57 | 92.2 | 78.7 | 1.46 | 95.5 | 5.69 | 82.8 |  |  |  |  |  |  |  | 
5 | CC(C)C(CNCc1cccc2c1OCO2)N1CCOCC1 (stereo not drawn) [DDD01077478] | > 12.5 | 0.56 | 86.4 | 52.1 | 2.57 | 85.2 | 1.89 | 62.1 |  |  |  |  |  |  |  | 
6 | Cc1n[nH]cc1CNC1(c2ccc(F)cc2)CCCC1 [DDD01077733] | > 12.5 | 0.59 | 86.6 | 59 | 2.1 | 87 | > 1.39 | 59 |  |  |  |  |  |  |  | 
7 | CC(NCCN1CCC(N(C)C)CC1)c1ccc(Cl)s1 (stereo not drawn) [DDD01077862] | 4.33 | 0.92 | 87.7 | 83.2 | 1.35 | 97.3 | 2.87 | 89 |  |  |  |  |  |  |  | 
8 | NC(=O)CN1CCC(Nc2ccnc3ccc(Cl)cc23)CC1 [DDD01078433] | 1.98 | 0.96 |  | 99.5 | 1.05 | 100 | 1.02 | 98.2 |  |  |  |  |  |  |  | 
9 | CS(=O)(=O)CCCNC1(c2cccc(Cl)c2)CCCC1 [DDD01078792] |  |  |  |  |  |  |  |  | > 12.5 | 1.66 | 85 | 68.8 | 3.02 | 88 | > 4.16 | 73.6
10 | Cc1cccc(C2(NCCCS(C)(=O)=O)CCCC2)c1 [DDD01078804] | 12.1 | 0.66 | 85 | 56.6 | 1.93 | 85.9 | 6.57 | 74.2 |  |  |  |  |  |  |  | 
11 | Cc1cn2c(n1)C(CNCc1ccc(C)s1)CCC2 (stereo not drawn) [DDD01079169] | 1.64 | 0.63 | 93.4 | 93.3 | 0.471 | 100 | 2.25 | 83.8 |  |  |  |  |  |  |  | 
12 | O=C(CN1CCCC(c2ccn[nH]2)C1)Nc1nc2c(s1)CCC2 (stereo not drawn) [DDD01079497] | 0.618 | 0.22 | 90.5 |  | 0.451 | 97.6 | 0.192 | 73.2 |  |  |  |  |  |  |  | 
13 | Cc1cc(C2CCCN(CC(=O)Nc3nc4c(s3)CCC4)C2)n[nH]1 (stereo not drawn) [DDD01079504] | 0.456 | 0.28 | 81.5 | 84.9 | 0.388 | 97.8 | 0.179 | 71.3 |  |  |  |  |  |  |  | 
14 | Cc1cc(Br)cnc1NCCN1CCC(N(C)C)CC1 [DDD01079597] | 7.01 | 0.51 | 92.4 | 87.3 | 1.15 | 99.5 | 3.19 | 92.7 |  |  |  |  |  |  |  | 
15 | COc1cccc(CNC(CN2CCN(C)CC2)c2ccccc2)c1 (stereo not drawn) [DDD01079897] | 2.58 | 0.38 | 91 | 83.2 | 0.79 | 98.1 | 1.65 | 94.5 |  |  |  |  |  |  |  | 
16 | Cc1ccc(CNC(CN2CCN(C)CC2)c2ccccc2)cc1 (stereo not drawn) [DDD01079898] | 4.31 | 0.26 | 91.3 | 88.2 | 1.21 | 98.8 | 1.36 | 95.9 |  |  |  |  |  |  |  | 
17 | Cc1cccc(CNC(CN2CCN(C)CC2)c2ccccc2)c1 (stereo not drawn) [DDD01079901] | 2.73 | 0.24 | 91.5 | 89.2 | 0.53 | 99 | 0.449 | 98.3 |  |  |  |  |  |  |  | 
18 | NCC1(c2cccc(Br)c2)CCOCC1 [DDD01079955] | 4.79 | 0.84 | 87.3 | 58.8 | 1.63 | 85.9 | > 4.16 | 76.8 |  |  |  |  |  |  |  | 
19 | COCCCN1CCCN(C(C)C(=O)Nc2cccc(I)c2)CC1 (stereo not drawn) [DDD01080015] | 2.64 | 0.87 | 92 | 71.5 | 1.94 | 94.8 | 10.6 | 77.7 |  |  |  |  |  |  |  | 
20 | c1cnn(C[C@@H]2C[C@@H]3CN(CC4CC4)CC[C@@H]3N2c2nccs2)c1 [DDD01081619] |  |  |  |  |  |  |  |  | 2.56 | 1.48 | 94.2 |  | 1.87 | 99.5 | 2.7 | 73.6
21 | Cc1ccc(CNC2CC3(CCN(CCO)CC3)c3ccccc32)s1 (stereo not drawn) [DDD01082017] | 3.82 | 0.41 | 91 | 80.4 | 1.07 | 98 | 2.9 | 89.2 |  |  |  |  |  |  |  | 
22 | COCCN1CCC2(CC1)CC(NCc1ccc(C)s1)c1ccccc12 (stereo not drawn) [DDD01082023] | 7.58 | 0.63 | 90 |  | 1.55 | 96.4 | 2.42 | 82.4 |  |  |  |  |  |  |  | 
